The values that follow come from patent US11104670B2, “4-pyrimidin-5-ylmethyl-morpholine derivatives and the use thereof as medicament” (Boehringer Ingelheim International GmbH, priority 2018, dated 2021).

What all share (format): cell-based
In experiment [1] the target is NMDA NR1/NR2B receptor (Homo sapiens (Human), UniProt Q05586+Q13224). Briefly: NMDA NR1/NR2B FLIPR calcium assay in HEK293 cells. To be noted: glycine/glutamate-induced calcium, read-out: IC50, in vitro NR2B affinity in the FLIPR assay. As for the experimental part: (§1) A human HEK293 cell line with tetracyclin-inducible expression of NMDA NR1/NR2B receptor was used as a test system for compound efficacy and potency. The cell line was purchased from ChanTest, Catalog #CT6121. Compound activity was determined by measuring the effect of compounds on intracellular calcium concentration induced by glycine/glutamate agonism in a FLIPRtetra system (Molecular Devices).
(§2) The cells were obtained as frozen cells in cryo-vials and stored until use at −150° C. Cells were grown in culture medium (DMEM/F12, 10% FBS, 5 μg/mL Blasticidin, 150 μg/mL Zeozin, 500 μg/mL Geneticin). […] For sub-culturing the cells were detached from flasks by Versene. For the assay, cells were detached, washed twice with induction medium (DMEM/F12 without glutamine, 10% FBS, 2 μg/mL Tetracycline, 2 mM Ketamine) and seeded to 384 well pure coat amine plates (Becton Dickinson, 50000 cells per well in 50 μl) 48 h prior to assay in induction medium.
(§3) The test compounds were dissolved in 100% DMSO at a concentration of 10 mM and in a first step diluted in DMSO to a concentration of 5 mM, followed by serial dilution steps in 100% DMSO. Dilution factor and number of dilution steps may vary according to needs. Typically 8 different concentrations by 1:5 dilutions were prepared in duplicate, further intermediate dilutions (1:37.5) of the substances were carried out with aqueous assay buffer (137 mM NaCl, 4 mM KCl, 1.8 mM CaCl2), 10 mM HEPES, 10 mM Glucose, pH 7.4) resulting in a compound concentration 3 times above the final test concentration and DMSO at 2.7% resulting in 0.9% final DMSO concentration in the assay.
(§4) At the assay day cells were washed 3× with assay buffer (as described above), 10 μL buffer remained in the wells after washing. 10 μL Ca kit loading buffer (AAT Bioquest; prepared from the kit containing the following components: Component A: Fluo-8 NW dissolved in 200 μL DMSO and 20 μl of this solution are mixed with 10 ml buffer prepared out of component B and C, Component B: 10× Pluronic® F127 Plus diluted 1:10 in component C, Component C: HHBS (Hanks with 20 mM Hepes) was added to the cells and the plates were incubated with lid for 60 minutes at room temperature. 20 μl assay buffer containing 60 μM glycine (20 μM final) and 3 μM glutamate (1 μM final) was added to column 1-23, column 24 got assay buffer without glycine/glutamate to serve as negative unstimulated control. Fluorescence (indicating the calcium influx as a result of the NR1/NR2B ion channel activation) was read on the FLIPRtetra device for 60 seconds to monitor the glutamate induced effects. After 2 minutes 20 μL of compound dilution prepared as described above or controls (row 1-22) in assay buffer were carefully added to the wells. […] The average of 2 measurements at 5 minutes and 5 min 10 seconds after compound addition is calculated and further used for IC50 calculations. Each assay microtiter compound dilution plate contained wells (in column 23 or 24) with DMSO controls instead of compound as controls for glycine/glutamate induced fluorescence (high controls) and wells with 1 μM of a reference NR2B NAM as low controls (Compound 22; reference: Layton, Mark E et al, ACS Chemical Neuroscience 2011, 2(7), 352-362).
(§5) The output file of the reader contains the well number and measured average fluorescence units. For data evaluation and calculation, the measurement of the low control was set as 0% control and the measurement of the high control was set as 100% control. The IC50 values were calculated using the standard 4 parameter logistic regression formula. Calculation: [y=(a−d)/(1+(x/c)^b)+d], a=low value, d=high value; x=conc M; c=IC50 M; b=slope.

A further experiment has as its target Nav1.6 channel (Homo sapiens (Human), UniProt Q9UQD0). Briefly: Nav1.6 inhibition, IonWorks Quattro electrophysiology. To be noted: for inhibition at 1 µM / Normalized % inhibition at 5 μM / inhibition at 5 µM: normalized to vehicle (0%) and maximal inhibition control (100%). As for the experimental part: Ion Works Quattro electrophysiological platform
The compounds were prepared in DMSO at 300× the final assay concentrations of 1 and 5 μM.
The 300× DMSO stock solutions were transferred into assay plates where 2 μl per well of each 300× stock solution were placed. All assay plates were stored at −80° C. until the day of assay.
On the day of the assay, the appropriate assay plate was thawed at room temperature, centrifuged, and 198 μl of external recording solution was added and mixed thoroughly. This provided a 1:100 dilution. A further 1:3 dilution occurred upon addition to the cells in the IonWorks Quattro electrophysiological platform, giving a 1:300 dilution in total.
On each assay plate, at least 8 wells were reserved for vehicle control (0.3% DMSO) and at least 8 wells for each positive control specific to the cell line tested. The positive controls were tested at a maximal blocking and an approximate IC50 concentration. As positive control Lidocaine at concentrations of 30 and 1000 μM was used.
Amphotericin B was used to obtain electrical access to the cell interior at a final concentration of 200 μg/ml in internal recording solution.
State-dependent inhibition: Sodium channels when held at depolarized potential or long test pulse, the channels open and inactivate and then stay inactivated until the membrane potential is stepped back to hyperpolarized potentials, when the inactivated channels recover from inactivation into closed state.
Cells were held at −120 mV. In order to completely inactivate the sodium channels (pulse 1), the cells were pulsed to +0 mV for 2500 ms and stepped back to −120 mV for 10 ms (to completely recover from inactivation, however channels that had drugs bound to them will not recover from inactivation) before stepping to +0 mV for 20 ms (pulse 2).
Both the positive and vehicle control data associated with each cell line assayed are shown below as an example. The mean is shown for each positive and negative control as solid symbol with the total number of individual well replicates given next to the solid symbol. In addition, the individual data of each well are shown on the graph as open symbols so that the variation about the mean value can be readily assessed.
In FIG. 2, a Post/Pre value of 1.0 corresponds to 0% inhibition, a Post/Pre value of 0.0 corresponds to 100% inhibition.
Tables 3 and 4 show the normalized percentage inhibition of Nav1.6 channel. […] (see also the figure Assay Control Results above).

In experiment [2] the target is NMDA NR1/NR2B receptor (Homo sapiens (Human), UniProt Q13224). In words: NMDA NR1/NR2B FLIPR calcium assay in HEK293 cells. To be noted: glycine/glutamate-induced calcium, read-out: IC50, in vitro NR2B affinity in the FLIPR assay. As for the experimental part: as §1, §2, §3, §4, §5
NMDA NR1/NR2B receptor (Homo sapiens (Human), UniProt Q13224), sequence (Q13224 27-1484, other chains not shown): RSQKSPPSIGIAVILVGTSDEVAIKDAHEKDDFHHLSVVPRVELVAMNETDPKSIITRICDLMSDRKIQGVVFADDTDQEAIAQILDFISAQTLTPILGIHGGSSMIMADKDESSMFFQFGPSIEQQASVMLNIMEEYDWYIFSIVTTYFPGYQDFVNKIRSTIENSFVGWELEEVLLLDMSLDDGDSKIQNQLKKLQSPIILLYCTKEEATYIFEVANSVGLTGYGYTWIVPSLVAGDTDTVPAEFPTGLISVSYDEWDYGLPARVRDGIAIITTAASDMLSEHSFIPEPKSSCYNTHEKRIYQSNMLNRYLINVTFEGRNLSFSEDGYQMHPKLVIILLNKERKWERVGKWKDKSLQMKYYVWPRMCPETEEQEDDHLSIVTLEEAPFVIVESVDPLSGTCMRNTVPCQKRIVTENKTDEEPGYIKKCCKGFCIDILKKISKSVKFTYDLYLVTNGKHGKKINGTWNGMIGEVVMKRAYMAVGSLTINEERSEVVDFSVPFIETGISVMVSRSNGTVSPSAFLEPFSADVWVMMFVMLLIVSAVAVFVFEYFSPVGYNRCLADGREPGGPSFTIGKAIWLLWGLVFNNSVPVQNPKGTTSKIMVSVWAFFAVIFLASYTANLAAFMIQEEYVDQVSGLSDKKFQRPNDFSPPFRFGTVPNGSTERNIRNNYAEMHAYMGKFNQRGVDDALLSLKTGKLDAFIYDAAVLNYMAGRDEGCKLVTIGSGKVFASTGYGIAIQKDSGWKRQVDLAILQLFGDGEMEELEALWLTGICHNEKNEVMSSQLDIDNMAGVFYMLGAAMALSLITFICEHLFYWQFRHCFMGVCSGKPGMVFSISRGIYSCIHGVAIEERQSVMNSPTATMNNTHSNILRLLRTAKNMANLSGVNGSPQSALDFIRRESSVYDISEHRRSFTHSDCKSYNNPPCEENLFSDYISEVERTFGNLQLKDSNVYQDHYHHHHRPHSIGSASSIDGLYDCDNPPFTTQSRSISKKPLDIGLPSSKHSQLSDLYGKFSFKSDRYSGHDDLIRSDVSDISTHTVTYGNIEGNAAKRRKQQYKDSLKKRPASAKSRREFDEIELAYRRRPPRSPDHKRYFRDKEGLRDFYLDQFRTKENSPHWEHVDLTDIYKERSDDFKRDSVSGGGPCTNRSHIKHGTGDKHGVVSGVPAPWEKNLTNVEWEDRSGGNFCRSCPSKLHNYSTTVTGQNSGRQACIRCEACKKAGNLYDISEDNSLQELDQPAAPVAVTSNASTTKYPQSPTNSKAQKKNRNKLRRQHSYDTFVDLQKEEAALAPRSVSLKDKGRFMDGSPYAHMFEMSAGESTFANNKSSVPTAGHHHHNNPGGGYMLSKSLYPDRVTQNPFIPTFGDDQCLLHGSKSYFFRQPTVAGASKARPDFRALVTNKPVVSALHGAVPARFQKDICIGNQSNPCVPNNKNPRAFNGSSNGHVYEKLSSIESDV

NMDA NR1/NR2B receptor (Homo sapiens (Human), UniProt Q05586+Q13224), sequence (Q13224 27-1484, other chains not shown): as above
Nav1.6 channel, sequence (Q9UQD0 whole entry): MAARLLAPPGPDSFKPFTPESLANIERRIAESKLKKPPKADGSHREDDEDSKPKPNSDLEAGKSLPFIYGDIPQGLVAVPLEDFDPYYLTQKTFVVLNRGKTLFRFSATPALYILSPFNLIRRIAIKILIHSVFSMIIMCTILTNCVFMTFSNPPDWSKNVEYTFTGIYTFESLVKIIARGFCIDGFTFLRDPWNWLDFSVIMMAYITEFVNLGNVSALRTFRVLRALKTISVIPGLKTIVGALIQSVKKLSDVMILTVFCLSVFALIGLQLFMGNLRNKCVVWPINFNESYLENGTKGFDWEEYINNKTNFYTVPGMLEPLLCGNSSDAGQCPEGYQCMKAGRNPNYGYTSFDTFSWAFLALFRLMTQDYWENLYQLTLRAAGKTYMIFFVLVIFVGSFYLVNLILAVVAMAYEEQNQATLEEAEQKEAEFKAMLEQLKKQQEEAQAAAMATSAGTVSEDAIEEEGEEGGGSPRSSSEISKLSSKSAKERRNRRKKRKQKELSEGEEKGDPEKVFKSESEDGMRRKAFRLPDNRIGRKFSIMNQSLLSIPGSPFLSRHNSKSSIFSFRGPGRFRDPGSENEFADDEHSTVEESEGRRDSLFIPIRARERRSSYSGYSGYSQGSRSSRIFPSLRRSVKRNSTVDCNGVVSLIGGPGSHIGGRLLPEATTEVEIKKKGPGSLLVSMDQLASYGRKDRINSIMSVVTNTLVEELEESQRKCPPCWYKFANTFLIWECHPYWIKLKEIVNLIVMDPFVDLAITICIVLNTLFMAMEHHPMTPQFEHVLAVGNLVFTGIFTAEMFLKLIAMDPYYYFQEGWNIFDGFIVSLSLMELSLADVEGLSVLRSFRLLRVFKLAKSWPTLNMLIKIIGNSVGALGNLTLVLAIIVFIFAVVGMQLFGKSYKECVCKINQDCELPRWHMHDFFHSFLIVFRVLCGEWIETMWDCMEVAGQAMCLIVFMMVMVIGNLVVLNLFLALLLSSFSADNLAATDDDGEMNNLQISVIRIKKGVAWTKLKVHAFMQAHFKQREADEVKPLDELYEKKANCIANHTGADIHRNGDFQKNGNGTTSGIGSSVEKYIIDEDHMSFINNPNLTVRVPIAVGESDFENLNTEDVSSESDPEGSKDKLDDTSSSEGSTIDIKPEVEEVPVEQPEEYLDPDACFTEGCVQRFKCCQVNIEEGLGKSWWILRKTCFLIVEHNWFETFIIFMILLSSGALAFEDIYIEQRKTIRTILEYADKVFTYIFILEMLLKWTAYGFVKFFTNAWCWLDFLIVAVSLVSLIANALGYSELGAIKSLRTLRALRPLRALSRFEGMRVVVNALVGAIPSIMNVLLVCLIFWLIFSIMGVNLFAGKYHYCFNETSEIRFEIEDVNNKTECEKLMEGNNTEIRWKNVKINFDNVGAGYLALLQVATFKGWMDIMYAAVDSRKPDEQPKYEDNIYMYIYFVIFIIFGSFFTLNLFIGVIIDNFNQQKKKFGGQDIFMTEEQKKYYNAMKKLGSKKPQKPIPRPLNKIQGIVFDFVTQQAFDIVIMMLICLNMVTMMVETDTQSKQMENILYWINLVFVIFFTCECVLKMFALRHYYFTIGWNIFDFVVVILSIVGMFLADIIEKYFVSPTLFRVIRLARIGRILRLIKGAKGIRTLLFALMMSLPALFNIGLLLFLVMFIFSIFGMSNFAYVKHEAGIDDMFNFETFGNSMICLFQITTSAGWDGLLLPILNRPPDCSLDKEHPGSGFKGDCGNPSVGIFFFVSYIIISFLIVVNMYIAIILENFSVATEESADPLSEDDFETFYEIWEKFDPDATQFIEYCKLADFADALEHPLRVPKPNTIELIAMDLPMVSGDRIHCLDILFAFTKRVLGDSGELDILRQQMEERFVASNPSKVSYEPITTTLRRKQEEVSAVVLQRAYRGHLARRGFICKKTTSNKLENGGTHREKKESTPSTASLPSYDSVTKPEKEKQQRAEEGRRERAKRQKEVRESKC

The IC50 is the concentration needed to halve the response being measured. As a reminder, the inhibition is the drop in the measured response relative to a control, in per cent. For the compound `CCNC(=O)C1CN(Cc2cccc(Oc3ccccc3)c2)CCO1` (stereo not drawn) [Example 100, reference compound], on NMDA NR1/NR2B receptor [1], the IC50 is greater than 8890 nM. Besides, on Nav1.6 channel, the inhibition at 1 µM came to 2.2%, the “Normalized % inhibition at 5 μM” value is on record as 37.8% and the inhibition at 5 µM amounted to 37.8%.
For the compound `O=C(C1CN(Cc2cccc(Oc3ccccc3)c2)CCO1)N1CCOCC1` (stereo not drawn) [Example 106, reference compound], the IC50 on NMDA NR1/NR2B receptor [1] is greater than 9260 nM. Further, on Nav1.6 channel, the inhibition at 1 µM was -0.7%, the “Normalized % inhibition at 5 μM” value is 14% and the inhibition at 5 µM came to 14%.
As to `CCCCNc1ccc(C(=O)OCCN(C)C)cc1` [Tetracaine, reference compound], at Nav1.6 channel (depolarized vs hyperpolarized potential), the “state-dependent inhibition of Nav1.6 (in words)” value is “much stronger at depolarized potentials than at hyperpolarized potential”.
In the case of `CNC(=O)[C@@H]1CN(Cc2cnc(Oc3c(F)cccc3F)nc2)CCO1` [Example 34], the IC50 at NMDA NR1/NR2B receptor [2] was found to be 362 nM.
Take `CCN(CC)CC(=O)Nc1c(C)cccc1C` [Lidocaine, reference compound]: the “inhibition of evoked Nav1.6 currents (in words)” value at Nav1.6 channel (assay control, 30 and 1000 μM) is “inhibited evoked currents in a concentration and use dependent manner”. In addition, the inhibition at 1000 µM on Nav1.6 channel (read-out: maximum inhibition at P1 (not normalized)) was 46.4 to 47.2%.
Regarding `CNC(=O)[C@@H]1CN(Cc2cnc(Oc3ccccc3)nc2)CCO1` [Example 33], the IC50 at NMDA NR1/NR2B receptor [2] stood at 509 nM.
On the same count and under the same terms, under `CNC(=O)[C@@H]1CN(Cc2cnc(Oc3c(C)cccc3F)nc2)CCO1` [Example 35] stands 933 nM.
For `O=C(NCc1ccccn1)C1CN(Cc2cccc(Oc3ccccc3)c2)CCO1` (stereo not drawn) [Example 105, reference compound], on NMDA NR1/NR2B receptor [1], the IC50 was greater than 9260 nM. Moreover, at Nav1.6 channel, the inhibition at 1 µM came out at 18.2%, the “Normalized % inhibition at 5 μM” value came to 68% and the inhibition at 5 µM was found to be 68%.
